System: human myeloma cell line MM.1S
Assay: Biological pathway analysis of SILAC biomarker peptides against pathway database (broadinstitute gsea)
Description: Once biomarker peptides are identified for a specific drug by the SILAC method, the biomarker peptides may be compared to peptides/proteins in a biological pathway database in order to identify major biological pathways or functions implicated by the drug's action. A preferred pathway analysis website is at www dot broadinstitute dot org/gsea/index dot jsp.
This example describes the biological pathway analysis that was performed on each of Compound A, Compound B, and Tubastatin A.
Once biomarker peptides were identified for a specific drug (either Compound A, Compound B, or Tubastatin A) by the SILAC method in Example 1, the biomarker peptides were compared to peptides/proteins in the biological pathway database at www dot broadinstitute dot org/gsea/index dot jsp in order to identify major biological pathways or functions implicated by the drug's action.

## O=C(CCCCCCNC(=O)c1cnc(N(c2ccccc2)c2ccccc2)nc1)NO [Compound A, 2-(diphenylamino)-N-(7-(hydroxyamino)-7-oxoheptyl)pyrimidine-5-carboxamide]
Pathway_size 48
  Observed: number of genes in pathway REACTOME_PACKAGING_OF_TELOMERE_ENDS: 35
  Ratio observed/pathway size, REACTOME_PACKAGING_OF_TELOMERE_ENDS: 0.7292
Pathway_size 61
  Observed: number of genes in pathway REACTOME_RNA_POL_I_PROMOTER_OPENING: 49
  Ratio observed/pathway size, REACTOME_RNA_POL_I_PROMOTER_OPENING: 0.8033
Pathway_size 64
  Observed: number of genes in pathway REACTOME_DEPOSITION_OF_NEW_CENPA_CONTAINING_NUCLEOSOMES_AT_THE_CENTROMERE: 34
  Ratio observed/pathway size, REACTOME_DEPOSITION_OF_NEW_CENPA_CONTAINING_NUCLEOSOMES_AT_THE_CENTROMERE: 0.5312
Pathway_size 66
  Observed: number of genes in pathway […]_UNKNOWN: 32
  Ratio observed/pathway size, […]_UNKNOWN: 0.4848
Pathway_size 70
  Observed: number of genes in pathway GCM_TPT1: 37
  Ratio observed/pathway size, GCM_TPT1: 0.5286
Pathway_size 71
  Observed: number of genes in pathway REACTOME_MEIOTIC_SYNAPSIS: 35
  Ratio observed/pathway size, REACTOME_MEIOTIC_SYNAPSIS: 0.493
Pathway_size 75
  Observed: number of genes in pathway REACTOME_TELOMERE_MAINTENANCE: 36
  Ratio observed/pathway size, REACTOME_TELOMERE_MAINTENANCE: 0.48
Pathway_size 80
  Observed: number of genes in pathway STRUCTURAL_CONSTITUENT_OF_RIBOSOME: 33
  Ratio observed/pathway size, STRUCTURAL_CONSTITUENT_OF_RIBOSOME: 0.4125
Pathway_size 81
  Observed: number of genes in pathway MIPS_RIBOSOME_CYTOPLASMIC: 42
  Observed: number of genes in pathway REACTOME_AMYLOIDS: 49
  Ratio observed/pathway size, MIPS_RIBOSOME_CYTOPLASMIC: 0.5185
  Ratio observed/pathway size, REACTOME_AMYLOIDS: 0.6049
Pathway_size 84
  Observed: number of genes in pathway REACTOME_MEIOTIC_RECOMBINATION: 50
  Ratio observed/pathway size, REACTOME_MEIOTIC_RECOMBINATION: 0.5952
Pathway_size 86
  Observed: number of genes in pathway REACTOME_RNA_POL_I_TRANSCRIPTION: 50
  Ratio observed/pathway size, REACTOME_RNA_POL_I_TRANSCRIPTION: 0.5814
Pathway_size 88
  Observed: number of genes in pathway KEGG_RIBOSOME: 42
  Ratio observed/pathway size, KEGG_RIBOSOME: 0.4773
Pathway_size 102
  Observed: number of genes in pathway MORF_TPT1: 40
  Ratio observed/pathway size, MORF_TPT1: 0.3922
Pathway_size 104
  Observed: number of genes in pathway MIPS_NOP56P_ASSOCIATED_PRE_RRNA_COMPLEX: 44
  Ratio observed/pathway size, MIPS_NOP56P_ASSOCIATED_PRE_RRNA_COMPLEX: 0.4231
Pathway_size 112
  Observed: number of genes in pathway REACTOME_MEIOSIS: 50
  Ratio observed/pathway size, REACTOME_MEIOSIS: 0.4464
Pathway_size 116
  Observed: number of genes in pathway GCM_NPM1: 41
  Ratio observed/pathway size, GCM_NPM1: 0.3534
Pathway_size 119
  Observed: number of genes in pathway REACTOME_RNA_POL_I_RNA_POL_III_AND_MITOCHONDRIAL_TRANSCRIPTION: 50
  Ratio observed/pathway size, REACTOME_RNA_POL_I_RNA_POL_III_AND_MITOCHONDRIAL_TRANSCRIPTION: 0.4202
Pathway_size 121
  Observed: number of genes in pathway GNF2_EIF3S6: 41
  Ratio observed/pathway size, GNF2_EIF3S6: 0.3388
Pathway_size 124
  Observed: number of genes in pathway GCM_ACTG1: 39
  Ratio observed/pathway size, GCM_ACTG1: 0.3145
Pathway_size 138
  Observed: number of genes in pathway MORF_ACTG1: 53
  Ratio observed/pathway size, MORF_ACTG1: 0.3841
Pathway_size 139
  Observed: number of genes in pathway KEGG_SYSTEMIC_LUPUS_ERYTHEMATOSUS: 54
  Ratio observed/pathway size, KEGG_SYSTEMIC_LUPUS_ERYTHEMATOSUS: 0.3885
Pathway_size 145
  Observed: number of genes in pathway REACTOME_PEPTIDE_CHAIN_ELONGATION: 41
  Ratio observed/pathway size, REACTOME_PEPTIDE_CHAIN_ELONGATION: 0.2828
Pathway_size 154
  Observed: number of genes in pathway MORF_NME2: 48
  Ratio observed/pathway size, MORF_NME2: 0.3117
Pathway_size 161
  Observed: number of genes in pathway REACTOME_INFLUENZA_VIRAL_RNA_TRANSCRIPTION_AND_REPLICATION: 42
  Ratio observed/pathway size, REACTOME_INFLUENZA_VIRAL_RNA_TRANSCRIPTION_AND_REPLICATION: 0.2609
Pathway_size 162
  Observed: number of genes in pathway MORF_NPM1: 59
  Ratio observed/pathway size, MORF_NPM1: 0.3642
Pathway_size 166
  Observed: number of genes in pathway REACTOME_3_UTR_MEDIATED_TRANSLATIONAL_REGULATION: 43
  Ratio observed/pathway size, REACTOME_3_UTR_MEDIATED_TRANSLATIONAL_REGULATION: 0.259
Pathway_size 167
  Observed: number of genes in pathway REACTOME_NONSENSE_MEDIATED_DECAY_ENHANCED_BY_THE_EXON_JUNCTION_COMPLEX: 41
  Ratio observed/pathway size, REACTOME_NONSENSE_MEDIATED_DECAY_ENHANCED_BY_THE_EXON_JUNCTION_COMPLEX: 0.2455
Pathway_size 170
  Observed: number of genes in pathway REACTOME_SRP_DEPENDENT_COTRANSLATIONAL_PROTEIN_TARGETING_TO_MEMBRANE: 46
  Ratio observed/pathway size, REACTOME_SRP_DEPENDENT_COTRANSLATIONAL_PROTEIN_TARGETING_TO_MEMBRANE: 0.2706
Pathway_size 195
  Observed: number of genes in pathway REACTOME_INFLUENZA_LIFE_CYCLE: 47
  Ratio observed/pathway size, REACTOME_INFLUENZA_LIFE_CYCLE: 0.241
Pathway_size 197
  Observed: number of genes in pathway MORF_ANP32B: 43
  Ratio observed/pathway size, MORF_ANP32B: 0.2183
Pathway_size 207
  Observed: number of genes in pathway REACTOME_TRANSCRIPTION: 53
  Ratio observed/pathway size, REACTOME_TRANSCRIPTION: 0.256
Pathway_size 211
  Observed: number of genes in pathway REACTOME_TRANSLATION: 48
  Ratio observed/pathway size, REACTOME_TRANSLATION: 0.2275
Pathway_size 238
  Observed: number of genes in pathway MORF_UBE2I: 55
  Ratio observed/pathway size, MORF_UBE2I: 0.2311
Pathway_size 268
  Observed: number of genes in pathway MORF_RAN: 53
  Ratio observed/pathway size, MORF_RAN: 0.1978
Pathway_size 318
  Observed: number of genes in pathway MODULE_151: 61
  Ratio observed/pathway size, MODULE_151: 0.1918
Pathway_size 320
  Observed: number of genes in pathway MODULE_83: 65
  Ratio observed/pathway size, MODULE_83: 0.2031
Pathway_size 338
  Observed: number of genes in pathway MODULE_114: 64
  Ratio observed/pathway size, MODULE_114: 0.1893
Pathway_size 389
  Observed: number of genes in pathway HSIAO_HOUSEKEEPING_GENES: 87
  Ratio observed/pathway size, HSIAO_HOUSEKEEPING_GENES: 0.2236
Pathway_size 429
  Observed: number of genes in pathway MOOTHA_HUMAN_MITODB_6_2002: 66
  Ratio observed/pathway size, MOOTHA_HUMAN_MITODB_6_2002: 0.1538
Pathway_size 447
  Observed: number of genes in pathway MOOTHA_MITOCHONDRIA: 57
  Ratio observed/pathway size, MOOTHA_MITOCHONDRIA: 0.1275
Pathway_size 496
  Observed: number of genes in pathway REACTOME_METABOLISM_OF_PROTEINS: 69
  Ratio observed/pathway size, REACTOME_METABOLISM_OF_PROTEINS: 0.1391
Pathway_size 681
  Observed: number of genes in pathway KIM_BIPOLAR_DISORDER_OLIGODENDROCYTE_DENSITY_CORR_UP: 64
  Ratio observed/pathway size, KIM_BIPOLAR_DISORDER_OLIGODENDROCYTE_DENSITY_CORR_UP: 0.09398
Pathway_size 841
  Observed: number of genes in pathway MARTENS_TRETINOIN_RESPONSE_DN: 69
  Ratio observed/pathway size, MARTENS_TRETINOIN_RESPONSE_DN: 0.08205
Pathway_size 870
  Observed: number of genes in pathway GRADE_COLON_CANCER_UP: 75
  Ratio observed/pathway size, GRADE_COLON_CANCER_UP: 0.08621
Pathway_size 1102
  Observed: number of genes in pathway DANG_BOUND_BY_MYC: 88
  Ratio observed/pathway size, DANG_BOUND_BY_MYC: 0.07985
Pathway_size 1237
  Observed: number of genes in pathway BLALOCK_ALZHEIMERS_DISEASE_DN: 81
  Ratio observed/pathway size, BLALOCK_ALZHEIMERS_DISEASE_DN: 0.06548
Pathway_size 1383
  Observed: number of genes in pathway CYTOPLASMIC_PART: 96
  Ratio observed/pathway size, CYTOPLASMIC_PART: 0.06941
Pathway_size 1651
  Observed: number of genes in pathway PUJANA_BRCA1_PCC_NETWORK: 107
  Ratio observed/pathway size, PUJANA_BRCA1_PCC_NETWORK: 0.06481
Pathway_size 2130
  Observed: number of genes in pathway CYTOPLASM: 117
  Ratio observed/pathway size, CYTOPLASM: 0.05493
